Reference: US20060287247A1, “Halogen-substituted thienyl compounds” (priority 2001, published 2006)
In brackets after ≈: the same amount, converted by molar mass.

Legend:
C. albicans ATCC 38247 = test: NCCLS broth microdilution MIC (antifungal); type: cell-based; settings: for Minimum Inhibitory Concentration (MIC): E = C. albicans ATCC 38247
Method: (§1) Compounds according to this invention were screened for their in vitro activities against selected species of bacteria and fungi. The minimal inhibition concentration (MIC) of these compounds was determined using the National Committee for Clinical Laboratory Standards (NCCLS) broth microdilution assay in microtiter plates, as set forth in: (1) the guidelines of the National Committee for Clinical Laboratory Standards (NCCLS) Document M7-A4 (NCCLS, 1997); (2) the guidelines of the National Committee for Clinical Laboratory Standards (NCCLS) Document M11-A4 (NCCLS, 1997); and (3) the guidelines and reference method of the National Committee for Clinical Laboratory Standards (NCCLS) Document M27-T (NCCLS, 1995). For antifungal essays, the method recommended in Murray, P R., 1995 Manual of Clinical Microbiology (ASM Press, Washington, D.C.), was employed. […]

E. coli ATCC 25922 = test: NCCLS broth microdilution MIC; type: cell-based; settings: for Minimum Inhibitory Concentration (MIC): D = E. coli ATCC 25922
Method: as §1

E. faecalis ATCC 29212 = test: NCCLS broth microdilution MIC; type: cell-based, Enterococcus faecalis; settings: for Minimum Inhibitory Concentration (MIC): B = E. faecalis ATCC 29212
Method: as §1

S. pneumoniae ATCC 49619 = test: NCCLS broth microdilution MIC; type: cell-based, Streptococcus pneumoniae; settings: for Minimum Inhibitory Concentration (MIC): F = S. pneumoniae ATCC 49619
Method: as §1

5′-AAAAAGTACAAAAA-3′ = type: binding; settings: DNA sequence 5′-AAAAAGTACAAAAA-3′; pH 7.0, 22° C.
Method: (§2) A number of compounds according to this invention were screened for their ability to bind to three DNA sites, using DNase I footprinting. Generally, the procedure described in Dervan, WO 98/50582 (1998), was followed.
(§3) A plasmid was prepared by hybridizing two sets of 5′-phosphorylated complementary oligonucleotides, one set being
(§4) The target sites and their complements are identified in bold underline.
(§5) The resulting duplexes were ligated to the large pUC19 AvaI/SalI restriction fragment. The 3′-P32 end-labeled EcoRI/PvuII fragment was prepared by digesting the plasmid with EcoRI and PvuII with simultaneous fill-in using Sequenase v. 2.0, [alpha-P32]-deoxyadenosine-5′-triphosphate, and [alpha-P32]-thymidine-5′-triphosphate, and isolating the cloned fragment by nondenaturing gel electrophoresis. Standard methods were used for all DNA manipulations, including A and G sequencing. See, e.g., Maxam et al., Methods Enzymol., 1980, 65, 499-560; Iverson et al., Methods Enzymol., 1987, 15, 7823-7830; and Sambrook et al., 1989, Molecular Cloning, 2nd ed., Cold Spring Harbor Laboratory Press: Cold Spring Harbor, N.Y.
(§6) Quantitative DNase I footprint titration experiments were carried out as described previously (Dervan, WO 98/50582, 1998, “Dervan '582”) with the following changes. All reactions were carried out in a total volume of 400 μL, with polyamide stock solution or water added to 15,000 cpm radiolabeled restriction fragment affording final solution conditions of 10 mM Tris.HCl, 10 mM KCl, 10 mM MgCl2, 5 mM CaCl2, pH 7.0 and 0.01 nM, 0.1 nM, 1.0 nM, 10.0 nM polyamide or no polyamide for reference lanes. The polyamides were allowed to equilibrate at 22° C. for 16 hr. Footprinting reactions were initiated with addition of 10 μL of a DNase I stock solution (at the appropriate concentration to give ˜50% intact DNA) containing 1 mM DTT and allowed to proceed for 7 min at 22° C. The reactions were stopped, ethanol precipitated, resuspended in loading buffer, heat denatured, and placed on ice as described in Dervan '582. The reaction products were separated on a precast 8% polyacrylamide denaturing sequencing Castaway gel with 32 preformed wells from Stratagene in 1× TBE at 2000 V. Gels were dried according to the manufacturer's instructions and exposed to a storage phosphor screen (Molecular Dynamics). Quantitation and data analysis were carried out as described in Dervan '582.

5′-AAAAAGCAAAAA-3′ = type: binding; settings: DNA sequence 5′-AAAAAGCAAAAA-3′; pH 7.0, 22° C.
Method: as §2, §3, §4, §5, §6

5′-AAAAAGACAAAAA-3′ = type: binding; settings: DNA sequence 5′-AAAAAGACAAAAA-3′; pH 7.0, 22° C.
Method: as §2, §3, §4, §5, §6

B. cereus ATCC 11778 = test: NCCLS broth microdilution MIC; type: cell-based, Bacillus cereus; settings: for Minimum Inhibitory Concentration (MIC): C = B. cereus ATCC 11778
Method: as §1

S. aureus ATCC 29213 = test: NCCLS broth microdilution MIC; type: cell-based, Staphylococcus aureus; settings: for Minimum Inhibitory Concentration (MIC): A = S. aureus ATCC 29213
Method: as §1

Compound | Minimum Inhibitory Concentration (MIC) (C. albicans ATCC 38247) [µg/mL] | Minimum Inhibitory Concentration (MIC) (E. coli ATCC 25922) [µg/mL] | Minimum Inhibitory Concentration (MIC) (E. faecalis ATCC 29212) | Minimum Inhibitory Concentration (MIC) (S. pneumoniae ATCC 49619) | Minimum Inhibitory Concentration (MIC) (B. cereus ATCC 11778) | Minimum Inhibitory Concentration (MIC) (S. aureus ATCC 29213) | Equilibrium Association Constant (Ka) (5′-AAAAAGTACAAAAA-3′) | Equilibrium Association Constant (Ka) (5′-AAAAAGCAAAAA-3′) [M⁻¹] | Equilibrium Association Constant (Ka) (5′-AAAAAGACAAAAA-3′) [M⁻¹] | MIC (C. albicans ATCC 38247; Candida albicans, ATCC38247, read-out: Minimum Inhibitory Concentration (MIC)) [µg/mL] | MIC (E. coli ATCC 25922; Escherichia coli, ATCC25922, read-out: Minimum Inhibitory Concentration (MIC)) [µg/mL] | MIC (E. faecalis ATCC 29212; Enterococcus faecalis, ATCC29212, read-out: Minimum Inhibitory Concentration (MIC)) [µg/mL] | MIC (S. pneumoniae ATCC 49619; Streptococcus pneumoniae, ATCC49619, read-out: Minimum Inhibitory Concentration (MIC)) [µg/mL] | MIC (B. cereus ATCC 11778; Bacillus cereus, ATCC11778, read-out: Minimum Inhibitory Concentration (MIC)) [µg/mL] | MIC (S. aureus ATCC 29213; Staphylococcus aureus, ATCC29213, read-out: Minimum Inhibitory Concentration (MIC)) [µg/mL]
Cn1cc(NC(=O)c2cc(NC(=O)CCNC(=O)c3cc(NC(=O)c4cc(NC(=O)c5cc(Br)c(Br)s5)cn4C)cn3C)cn2C)cc1C(=O)NCCC(=O)NCCCN [Id-9] | >32 | >32 | +++ (+++ = MIC ≦4) | +++ (+++ = MIC ≦4) | +++ (+++ = MIC ≦4) | +++ (+++ = MIC ≦4) |  |  |  |  |  |  |  |  | 
Cn1cc(NC(=O)c2cc(NC(=O)c3cc(NC(=O)c4sccc4F)cn3C)cn2C)cc1C(=O)NCCN1CCOCC1 [Ie-5] | >32 | >32 | >32 µg/mL | +++ (+++ = MIC ≦4) | +++ (+++ = MIC ≦4) | +++ (+++ = MIC ≦4) |  |  |  |  |  |  |  |  | 
Cn1cc(NC(=O)c2cc(NC(=O)c3cc(NC=O)cn3C)cn2C)cc1C(=O)NCCC(=N)N [Distamycin, distamycin, reference compound] |  |  |  |  |  |  |  |  |  | > 32 | > 32 | 12 to 32 (≈ 24.9 to 66.5 µM) | 12 to 32 (≈ 24.9 to 66.5 µM) | 4 to 12 (≈ 8.31 to 24.9 µM) | 12 to 32 (≈ 24.9 to 66.5 µM)
Cn1cc(NC(=O)c2cc(NC(=O)CCNC(=O)c3cc(NC(=O)c4cc(NC(=O)c5cc(Br)c(Br)s5)cn4C)cn3C)cn2C)cc1C(=O)NCCC(=O)NCCCCN [Id-8] | >32 | >32 | +++ (+++ = MIC ≦4) | +++ (+++ = MIC ≦4) | >32 µg/mL | >32 µg/mL |  |  |  |  |  |  |  |  | 
Cn1cc(NC(=O)c2cc(NC(=O)CCNC(=O)c3cc(NC(=O)c4cc(NC(=O)c5ccc(Br)s5)cn4C)cn3C)cn2C)cc1C(=O)NCCC(=O)NCc1cccnc1 [Id-23] | >32 | >32 | +++ (+++ = MIC ≦4) | +++ (+++ = MIC ≦4) | >32 µg/mL | >32 µg/mL |  |  |  |  |  |  |  |  | 
CCNCCNC(=O)CCNC(=O)c1cc(NC(=O)c2cc(NC(=O)CCNC(=O)c3cc(NC(=O)c4cc(NC(=O)c5cc(Br)c(Br)s5)cn4C)cn3C)cn2C)cn1C [Id-12] | >32 | >32 | +++ (+++ = MIC ≦4) | +++ (+++ = MIC ≦4) | +++ (+++ = MIC ≦4) | +++ (+++ = MIC ≦4) |  |  |  |  |  |  |  |  | 
Cn1cc(NC(=O)c2cc(NC(=O)CCNC(=O)c3cc(NC(=O)c4cc(NC(=O)c5cc(Br)c(NCCCN)s5)cn4C)cn3C)cn2C)cc1C(=O)NCCC(=O)NCCCN [Id-25] | >32 | >32 | + (+ = MIC from 12 to 32, inclusive) | +++ (+++ = MIC ≦4) | +++ (+++ = MIC ≦4) | + (+ = MIC from 12 to 32, inclusive) |  |  |  |  |  |  |  |  | 

Further lines, with some results ahead:

Minimum Inhibitory Concentration (MIC) (C. albicans ATCC 38247) [µg/mL] | Minimum Inhibitory Concentration (MIC) (E. coli ATCC 25922) [µg/mL] | Minimum Inhibitory Concentration (MIC) (E. faecalis ATCC 29212) | Minimum Inhibitory Concentration (MIC) (S. pneumoniae ATCC 49619) | Minimum Inhibitory Concentration (MIC) (B. cereus ATCC 11778) | Minimum Inhibitory Concentration (MIC) (S. aureus ATCC 29213) | Compound | Equilibrium Association Constant (Ka) (5′-AAAAAGTACAAAAA-3′) | Equilibrium Association Constant (Ka) (5′-AAAAAGCAAAAA-3′) [M⁻¹] | Equilibrium Association Constant (Ka) (5′-AAAAAGACAAAAA-3′) [M⁻¹] | MIC (C. albicans ATCC 38247; Candida albicans, ATCC38247, read-out: Minimum Inhibitory Concentration (MIC)) [µg/mL] | MIC (E. coli ATCC 25922; Escherichia coli, ATCC25922, read-out: Minimum Inhibitory Concentration (MIC)) [µg/mL] | MIC (E. faecalis ATCC 29212; Enterococcus faecalis, ATCC29212, read-out: Minimum Inhibitory Concentration (MIC)) [µg/mL] | MIC (S. pneumoniae ATCC 49619; Streptococcus pneumoniae, ATCC49619, read-out: Minimum Inhibitory Concentration (MIC)) [µg/mL] | MIC (B. cereus ATCC 11778; Bacillus cereus, ATCC11778, read-out: Minimum Inhibitory Concentration (MIC)) [µg/mL] | MIC (S. aureus ATCC 29213; Staphylococcus aureus, ATCC29213, read-out: Minimum Inhibitory Concentration (MIC)) [µg/mL]
>32 | >32 | +++ (+++ = MIC ≦4) | +++ (+++ = MIC ≦4) | +++ (+++ = MIC ≦4) | +++ (+++ = MIC ≦4) | CC(C)N(CCNC(=O)CCNC(=O)c1cc(NC(=O)c2cc(NC(=O)CCNC(=O)c3cc(NC(=O)c4cc(NC(=O)c5cc(Br)c(Br)s5)cn4C)cn3C)cn2C)cn1C)C(C)C [Id-3] | 5e+09 M⁻¹ | 5e+08 | 5e+08 |  |  |  |  |  | 
>32 | >32 | >32 µg/mL | +++ (+++ = MIC ≦4) | >32 µg/mL | >32 µg/mL | CN(C)CCN(C)C(=O)CCNC(=O)c1cc(NC(=O)c2cc(NC(=O)CCNC(=O)c3cc(NC(=O)c4cc(NC(=O)c5cc(Br)c(Br)s5)cn4C)cn3C)cn2C)cn1C [Id-10] |  |  |  |  |  |  |  |  | 
>32 |  | + (+ = MIC from 12 to 32, inclusive) | ++ (++ = MIC between 4 and 12) | + (+ = MIC from 12 to 32, inclusive) | >32 µg/mL | Cn1cc(NC(=O)c2cc(NC(=O)CCNC(=O)c3cc(NC(=O)c4cc(NC(=O)c5ccc(Br)s5)cn4C)cn3C)cn2C)cc1C(=O)NCCC(=O)NCCCNC1CCCCC1 [Id-15] | ≧1 × 10^11 M^−1 | 5e+10 | 5e+10 |  |  |  |  |  | 
>32 | >32 | +++ (+++ = MIC ≦4) | +++ (+++ = MIC ≦4) | +++ (+++ = MIC ≦4) | +++ (+++ = MIC ≦4) | Cn1cc(NC(=O)c2cc(NC(=O)c3cc(NC(=O)c4sccc4Cl)cn3C)cn2C)cc1C(=O)NCCN1CCOCC1 [Ie-6] |  |  |  |  |  |  |  |  | 
>32 | >32 | +++ (+++ = MIC ≦4) | +++ (+++ = MIC ≦4) | +++ (+++ = MIC ≦4) | +++ (+++ = MIC ≦4) | Cc1csc(C(=O)Nc2cc(C(=O)Nc3cc(C(=O)Nc4cc(C(=O)NCCN5CCOCC5)n(C)c4)n(C)c3)n(C)c2)c1Cl [Ie-11] |  |  |  |  |  |  |  |  | 
>32 | >32 | >32 µg/mL | +++ (+++ = MIC ≦4) | >32 µg/mL | >32 µg/mL | Cn1cc(NC(=O)c2cc(NC(=O)CCNC(=O)c3cc(NC(=O)c4cc(NC(=O)c5ccc(Br)s5)cn4C)cn3C)cn2C)cc1C(=O)NCCC(=O)NCC(C)(C)CN [Id-20] |  |  |  |  |  |  |  |  | 
>32 | >32 | >32 µg/mL | >32 µg/mL | >32 µg/mL | >32 µg/mL | Cn1cc(NC(=O)c2cc(NC(=O)CCNC(=O)c3cc(NC(=O)c4cc(NC(=O)c5cc(Br)c(Br)s5)cn4C)cn3C)cn2C)cc1C(=O)NCCC(=O)NCCCN1CCNCC1 [Id-13] |  |  |  |  |  |  |  |  | 
